Laboratory results taken from patent US5358936A, “Anionic furanose derivatives, methods of making and using the same” (Gordon; Paul, priority 1991, dated 1994).
Where a name gives a salt, the structure may show the parent alone.

Key:
mouse paw [1] = experiment: Mouse paw edema provoked by neutral proteases (Example 32); format: in vivo; conditions: two hours; SOD 150 units IV; Compound III 50 mg/kg IP and IV; SOD P<0.05, Compound III P<0.01
Method: (§1) Both tryptic activity and collagenase activity are components of the tissue-injuring neutral proteinase activities secreted by neutrophils. Collagenase activity has also been associated with injury to cartilage; and, in another context, with the micro-injury to blood vessels that permits the extravasation and metastasis of, and by, tumor cells.
(§2) The effects of Compound III on rat and mouse paw edema as provoked by injection of these enzymes were evaluated. SOD injected IV and Compound III injected IP and IV at zero time, (as in Example 25), inhibited edema at two hours by from 33-40 percent, in both species. […] Both drug effects were significant by t test, SOD at P<0.05 and Compound III at P<0.01.

rat paw = experiment: Rat paw edema provoked by neutral proteases (Example 32); format: in vivo; conditions: two hours; SOD IV; Compound III IP and IV
Method: as §1, §2

rat stomachs [2] = experiment: Gastric pathology following inflammatory stress and indomethacin, fed rats (Example 20); format: in vivo, male Sprague Dawley rats; parameters: scale not given here; conditions: stress + indomethacin 30 mg/kg oral; Compound III 50 mg/kg subcutaneously where given; 24 hours
Method: (§3) Stress was induced by the following procedure. On day one, under ether anesthesia, 18 male Sprague Dawley rats were injected with a suspension of Zymosan A (1 mg/ml in normal saline; Sigma Chemical Co.) in each hind paw. Swelling developed and persisted. This treatment generated activated blood complement locally (including the C5a moiety), which then spread by the bloodstream throughout the animal.
(§4) Twenty-four hours later all rat paws were reinjected, this time with 0.1 ml of proinflammatory zymosan-activated rat serum containing additional amounts of inflammatory complement fragment C5a (as in Example 23, hereinafter). Five hours later 30 mg/kg indomethacin in an aqueous suspension was given to nine such rats by oral garage. These rats also received a subcutaneous injection of 0.1 ml normal saline. Nine other such rats were given indomethacin as above, and Compound III (50 mg/kg in normal saline subcutaneously). Four additional rats, not stressed (normal) were given water by garage as a placebo and saline subcutaneously. All rats were fed ad libitum on standard diet.
Twenty-four hours later all animals were sacrificed by ether euthanasia. Their stomachs were washed with saline and evaluated for ulcer-related pathology using an illuminated magnifying glass. This assay is similar to that reported by Kinney et al., J. Med. Chem., 33:327 (1990).

mouse paw [3] = experiment: Mouse paw edema provoked by clostridial collagenase (Example 32); format: in vivo; conditions: for maximal drug inhibition of edema: lower enzyme level (0.05 μg/ml), 100 mg/kg divided IV and IP
Method: Further, mouse paw edema was provoked by two levels of clostridial collagenase enzyme, in the supramaximal range (0.05 μg/ml and 0.15 μg/ml), and treated with one level of drug (Compound III; 100 mg/kg divided equally and administered IV and IP at zero time). The maximal drug inhibition observed was 81 percent at one hour and 87 percent at two hours, for the lower level of enzyme.

[4] = Chronic toxicity in C57 Black mice by drinking water (Example 29 B); format: in vivo; conditions: 28 days, average daily dose 175 mg/kg
Method: However, eight mice were treated with Compound III by drinking water, for a period of 28 days. During this time, the average daily dose consumed was 175 mg/kg.

rat stomachs [5] = experiment: Gastric pathology following inflammatory stress and indomethacin, food-deprived rats (Example 21); format: in vivo
Method: as §3, §4
In contrast to the study of Example 20, above, in this study animals were food deprived for 24 hours before and also during the 24 hours following drug treatments. All animals were subjected to the inflammatory stress as described in Example 20. Eight such rats received 30 mg/kg indomethacin, and eight rats received indomethacin and Compound III (subcut., 50 mg/kg). Four rats, not stressed, were given placebo by garage.
All animals were sacrificed by ether euthanasia 24 hours later, and their stomachs evaluated for ulcer-related pathology.
In the stressed animals given indomethacin alone, pathology was much more severe than in Example 20. For scoring, therefore, the frequency of ulcers per rat stomach was quantified, and whether they were or were not bleeding.

[6] = system: myeloperoxidase (MPO); neutrophil infiltration; experiment: Myeloperoxidase (MPO) accumulation in ZAS-swollen footpads (Example 23); format: in vivo, rat; conditions: ZAS alone 94.42 ± 12.81, normal 11.67 ± 1.87, P < 0.01
Method: The relationship of neutrophil infiltration to ZAS-induced swelling, and its drug-inhibition, was evaluated in another study. In this study, all procedures employing ZAS and Compound III were carried out as above, except that, Compound III was administered 45 minutes before ZAS, and standardized samples of the swollen footpads were removed and subjected to analysis for myeloperoxidase activity (MPO), according to the method of Lundberg et al., Inflammation, 7:247, (1983). MPO is a neutrophil-specificenzyme, and its assay is the most widely used method of identifying the degree of neutrophil participation in organ pathology.

stomach ulcers = experiment: Gastric ulcers in rats with corona virus infection treated with indomethacin (Example 26); format: in vivo, rat
Source text: Corona virus is a non-lethal upper respiratory viral pathogen that not infrequently infects rat colonies. It is a type of rodent coryza or catarrh, the equivalent of a disease that falls somewhere between human influenza and a severe common cold. The animals of this study suffered from this condition, a circumstance which was evident by observation, and which was confirmed by virological diagnosis at the Biological Resources Laboratory of the University of Illinois at Chicago. Since stress is a common component of peptic ulcer development in both animals and man, it was concluded that this feature of the status of these experimental animals rendered them appropriate for an ulcer study.
In this study, animals were not food deprived and were divided into treatment groups such that 15 rats received 30 mg/kg indomethacin alone (in water by oral gavage), 14 rats received indomethacin plus an injection of 25 mg/kg cimetidine subcutaneously, and 7 rats received indomethacin plus subcutaneous injection of 17.5 mg/kg of Compound III.
All animals were sacrificed by ether euthanasia 24 hours later and their stomachs evaluated for ulcer pathology. In this study ulcers were not hemorrhagic. Results are shown below as the average number of stomach ulcers per stomach.

CC1(C)O[C@H]2O[C@H]([C@@H](COS(=O)(=O)O)OS(=O)(=O)O)[C@H](OS(=O)(=O)O)[C@H]2O1 [Compound III, 1,2-O-(2-Propylidene)-3,5,6-tri-O-sulfo-α-D-glucofuranose, tripotassium salt]
inhibition of edema (mouse paw [1]): 33-40%
inhibition of edema (rat paw): 33-40%
Mean Pathology score (rat stomachs [2]): 0.00
Pathology score, individual rat (rat stomachs [2]): 0.0
maximal drug inhibition of edema (mouse paw [3]; one hour): 81%
drug inhibition at higher enzyme level, in words (mouse paw [3]; two hours, 0.15 μg/ml enzyme, 100 mg/kg): not significant
maximal drug inhibition of edema (mouse paw [3]; two hours): 87%
body weight and appearance at termination versus controls [4]: weighed as much as the controls, and looked sleeker
bleeding ulcers in group (rat stomachs [5]; eight rats): None were bleeding
Bleeding Ulcer Frequency, Mn ± SE (rat stomachs [5]; indomethacin 30 mg/kg, Compound III 50 mg/kg subcut. where given, 24 hours, P<0.001 vs indomethacin alone): 0.00 Per Rat
Total Ulcer Frequency, n ± SE (rat stomachs [5]; indomethacin 30 mg/kg, Compound III 50 mg/kg subcut. where given, 24 hours, P<0.01 vs indomethacin alone): 0.63 ± 0.42 Per Rat
ulcers per affected rat (rat stomachs [5]; indomethacin: all eight rats, indomethacin + Compound III: only two rats): two and three
MPO ([6]; 17 mg/kg, n = 6): 32.17 ± 2.83 Rel. Units
MPO ([6]; 50 mg/kg, n = 12): 41.67 ± 8.93 Rel. Units
ulcer reduction compared with cimetidine, in words (stomach ulcers; 17.5 mg/kg Compound III vs 25 mg/kg cimetidine): greater using Compound III than cimetidine
Percent Inhibition of ulcer frequency (stomach ulcers; indomethacin 30 mg/kg oral, cimetidine 25 mg/kg s.c. or Compound III 17.5 mg/kg s.c.): 66%
Ulcer Frequency per stomach, Mn ± SE (stomach ulcers; indomethacin 30 mg/kg oral, cimetidine 25 mg/kg s.c. or Compound III 17.5 mg/kg s.c. where given, P<0.02): 0.86 ± 0.46 Per Stomach
